According to patent US20250281462A1, “THERAPEUTICALLY EFFECTIVE ORAL ADMINISTRATION OF A 2 ARYLBENZIMIDAZOLE” (Tranquis Therapeutics, Inc., priority 2021, published 2025):
Several values for one entry are separate records, joined by “and”; a condition that tells them apart may be missing. Identical values can stand only once. Like-named read-outs stand apart in the source and are kept apart here.

Columns and labels:
Assay type in all cases: in vivo
[1] = Plasma concentrations of TQS-168 and TQS-621 after single oral dose 50 mg/kg in mice, three formulations; settings: for Calculated Concentration in plasma: mice
Method: In a second experiment, mice were administered 50 mg/kg TQS-168 by oral gavage. For Group 1, TQS-168 was prepared at a concentration of 5.0 mg/mL in a suspension with […] in PBS. For Group 2, TQS-168 was prepared at a concentration of 5.0 mg/mL as a solution in 10 polyethylene glycol (PEG) 400|30 Kleptose (Roquete)|60% water.
Plasma exposures for Group 1 mice (ng/mL) are presented in Table 2 and for Group 2 mice in Table 3.
C57BL/6 male mice were administered a single dose of TQS-168 at 50 mg/kg using one of three formulations: Group 1-5.0 mg/ml suspension in 0.5% methylcellulose in PBS; Group 2-5.0 mg/ml solution in PEG400 (Fluka) 10%|Kleptose (Roquette) 30%|sterile water 60%; Group 3-5.0 mg/ml suspension in Labrafil M 1944 CS (Gattefosse) 30%|Masine CC (Gattefosse) 5%|Miglyol 812N 10%|sterile water 55%.
Plasma concentrations of TQS-168 and TQS-621 were measured overtime.

[2] = Plasma and brain concentrations after single oral dose 45 mg/kg in mice; settings: for Kp: brain, 45 mg/kg, mice, 45 mg/kg p.o.
Method: Mice were administered a single oral dose of 45 mg/kg TQS-168. TQS-168 was prepared at a concentration of 5.0 mg/mL as a solution in 10% polyethylene glycol (PEG) 400|130% Kleptose (Roquette) 60% water.
Concentrations in plasma and in brain were measured at various timepoints and various pharmacokinetic parameters were calculated, as shown below in Tables 4 and 5 and in FIGS. 19A and 19B.
TQS-168 was prepared as a 4.5 mg/ml solution in PEG400 10%| Kleptose 30% sterile water 60%. A single oral dose of 45 mg/kg was administered. Concentrations of TQS-621 were measured in plasma and brain over time.

[3] = Plasma and brain concentrations after single oral dose in rats; settings: both sexes, Sprague-Dawley, rat, rats plasma, suspension; for AUC(0-t): plasma, po
Method: Both male (n=3) and female (n=3) Sprague-Dawley rats were administered a single dose of TQS-168 by oral gavage at 50, 150, or 500 mg/kg of TQS-168. TQS-168 was prepared as a suspension with 0.5% methylcellulose in PBS.
Plasma samples were collected at 30, 60, 120, 240, and 1440 minutes after administration. Brain samples were collected in some animals at 60, 240, and 1440 minutes after the single oral dose of TQS-168 at 500 mg/kg. Samples were processed for LC-MS analysis of TQS-168 concentrations.
Cmax and AUC0-t values from the plasma tissues were calculated using PKSolver (Compute Methods Programs Biomed. 2010 September; 99(3):306-14. doi: 10.1016j.cmpb.2010.01.007. Epub 2010 Feb. 21) with the underlying data plotted FIG. 12a.

[4] = mice plasma, TQS-168 50 mg/kg p.o., Group 1 (suspension, 0.5% methylcellulose in PBS), individual mouse, 50 mg/kg
[5] = mice plasma, TQS-168 50 mg/kg p.o., Group 2 (solution, PEG400/Kleptose/water), individual mouse, 50 mg/kg
[6] = mice plasma, TQS-168 50 mg/kg p.o., Group 3 (suspension, Labrafil/Masine/Miglyol/water), individual mouse, 50 mg/kg
[7] = mice brain, TQS-168 45 mg/kg p.o., solution PEG 400/Kleptose/water
[8] = mice plasma, TQS-168 45 mg/kg p.o., solution PEG 400/Kleptose/water
[9] = mouse, po, mice brain, TQS-168 45 mg/kg p.o., solution PEG 400/Kleptose/water
[10] = mouse, po, mice plasma, TQS-168 45 mg/kg p.o., solution PEG 400/Kleptose/water

CC(C)(C)c1ccc(-c2nc3ccccc3[nH]2)cc1 [TQS-168, 2-(4-tert-butylphenyl)-1H-benzimidazole]
Cmax ([1]; mice plasma, 50 mg/kg p.o., Group 2 (solution), 50 mg/kg, read-out: Cmax): 7.9 µM | AUCInf [1, 4]: 5.085 µg·h/mL and 14.196 µg·h/mL and 5.052 µg·h/mL | AUClast [1, 4]: 8.046 µg·h/mL and 4.822 µg·h/mL | Cmax [1, 4]: 1.38 µg/mL and 0.704 µg/mL | t1/2 [1, 4]: 1.74 h and 9.47 h and 1.70 h | AUCInf [1, 5]: 11.411 µg·h/mL and 11.446 µg·h/mL | AUClast [1, 5]: 11.058 µg·h/mL and 10.525 µg·h/mL | Cmax [1, 5]: 2.39 µg/mL and 2.07 µg/mL | t1/2 [1, 5]: 2.22 h and 3.41 h | AUCInf [1, 6]: 4.336 µg·h/mL and 3.877 µg·h/mL | AUClast [1, 6]: 3.924 µg·h/mL and 3.753 µg·h/mL | Cmax [1, 6]: 0.752 µg/mL and 0.42 µg/mL | Tmax [1, 6]: 8 h | t1/2 [1, 6]: 2.23 h and 1.43 h | Cmax ([1]; mice plasma, TQS-168 50 mg/kg p.o., Group 3 (suspension, Labrafil/Masine/Miglyol/water), mean, 50 mg/kg): 0.594 µg/mL | Calculated Concentration in plasma ([1]; 50 mg/kg p.o., Group 1 (suspension, methylcellulose in PBS), 0.25 hr, individual mouse, 50 mg/kg): 887 ng/mL and 485 ng/mL | Calculated Concentration in plasma ([1]; 50 mg/kg p.o., Group 1 (suspension, methylcellulose in PBS), 0.5 hr, individual mouse, 50 mg/kg): 848 ng/mL and 1380 ng/mL and 619 ng/mL | Calculated Concentration in plasma ([1]; 50 mg/kg p.o., Group 1 (suspension, methylcellulose in PBS), 1 hr, individual mouse, 50 mg/kg): 1310 ng/mL and 704 ng/mL | Calculated Concentration in plasma ([1]; 50 mg/kg p.o., Group 1 (suspension, methylcellulose in PBS), 2 hr, individual mouse, 50 mg/kg): 839 ng/mL and 1050 ng/mL and 440 ng/mL | Calculated Concentration in plasma ([1]; 50 mg/kg p.o., Group 1 (suspension, methylcellulose in PBS), 4 hr, individual mouse, 50 mg/kg): 479 ng/mL and 391 ng/mL | Calculated Concentration in plasma ([1]; 50 mg/kg p.o., Group 1 (suspension, methylcellulose in PBS), 8 hr, individual mouse, 50 mg/kg): 254 ng/mL and 603 ng/mL and 480 ng/mL | Calculated Concentration in plasma ([1]; 50 mg/kg p.o., Group 1 (suspension, methylcellulose in PBS), 12 hr, individual mouse, 50 mg/kg): 18.0 ng/mL and 450 ng/mL and 93.9 ng/mL | Calculated Concentration in plasma ([1]; 50 mg/kg p.o., Group 1 (suspension, methylcellulose in PBS), 24 hr, individual mouse): BLOQ | Calculated Concentration in plasma ([1]; 50 mg/kg p.o., Group 2 (solution, PEG 400/Kleptose/water), 0.25 hr, individual mouse, 50 mg/kg): 874 ng/mL and 1170 ng/mL | Calculated Concentration in plasma ([1]; 50 mg/kg p.o., Group 2 (solution, PEG 400/Kleptose/water), 0.5 hr, individual mouse, 50 mg/kg): 2070 ng/mL and 1860 ng/mL | Calculated Concentration in plasma ([1]; 50 mg/kg p.o., Group 2 (solution, PEG 400/Kleptose/water), 1 hr, individual mouse, 50 mg/kg): 2390 ng/mL and 2070 ng/mL | Calculated Concentration in plasma ([1]; 50 mg/kg p.o., Group 2 (solution, PEG 400/Kleptose/water), 2 hr, individual mouse, 50 mg/kg): 1830 ng/mL and 1630 ng/mL | Calculated Concentration in plasma ([1]; 50 mg/kg p.o., Group 2 (solution, PEG 400/Kleptose/water), 4 hr, individual mouse, 50 mg/kg): 1330 ng/mL and 949 ng/mL | Calculated Concentration in plasma ([1]; 50 mg/kg p.o., Group 2 (solution, PEG 400/Kleptose/water), 8 hr, individual mouse, 50 mg/kg): 329 ng/mL and 579 ng/mL | Calculated Concentration in plasma ([1]; 50 mg/kg p.o., Group 2 (solution, PEG 400/Kleptose/water), 12 hr, individual mouse, 50 mg/kg): 110 ng/mL and 187 ng/mL | Calculated Concentration in plasma ([1]; 50 mg/kg p.o., Group 2 (solution, PEG 400/Kleptose/water), 24 hr, individual mouse): BLOQ | AUCExtr [2, 7]: 0.308% | AUCInf [2, 7]: 24668 ng·h/g | AUCInf/D [2, 7]: 548 kg·ng·h/g/mg | AUClast ([2]; mice brain, TQS-168 45 mg/kg p.o., solution PEG 400/Kleptose/water, last time point 24 hr): 24592 ng·h/g | AUCExtr [2, 8]: 0.188% | AUCInf/D [2, 8]: 302 kg·ng·h/mL/mg | Kp ([2]; mouse, po, read-out: Brain-to-plasma AUC ratio): 1.81 | Kp ([2]; mouse, po, read-out: Brain-to-plasma Cmax ratio): 1.84 | Cmax [2, 9]: 4260 ng/g | MRT inf [2, 9]: 3.45 h | Tmax [2, 9]: 1 h | half-life [2, 9]: 3.66 h | AUC(0-inf) [2, 10]: 13.6 µg·h/mL | Cmax [2, 10]: 2.31 µg/mL | MRT inf [2, 10]: 3.35 h | Tmax [2, 10]: 0.5 h | half-life [2, 10]: 3.26 h | AUC(0-t) ([2]; mouse, po, mice plasma, TQS-168 45 mg/kg p.o., solution PEG 400/Kleptose/water, last time point 24 hr): 13.6 µg·h/mL | AUC(0-t) ([3]; 50 mg/kg, 50 mg/kg single oral dose): 0.833 µg·h/mL | AUC(0-t) ([3]; 150 mg/kg, 150 mg/kg single oral dose): 1.83 µg·h/mL | AUC(0-t) ([3]; 500 mg/kg, 500 mg/kg single oral dose): 3.33 µg·h/mL | Cmax ([3]; 50 mg/kg single oral dose): 0.06 µg/mL | Cmax ([3]; 150 mg/kg single oral dose): 0.12 µg/mL | Cmax ([3]; 500 mg/kg single oral dose): 0.17 µg/mL
